In US8546377B2 (AbbVie Inc., priority 2009, dated 2013):
Entries after “also recorded” stand apart in the source; their conditions may differ. Read-outs that look alike come from different tables or passages of the source.

What was measured:
[1] = molecular target: T1, 5HT2C receptors (Homo sapiens, UniProt P28335); test: Human 5-HT2C functional assay in CHO-K1 cells (calcium flux, FLIPR); format: cell-based; set-up: expressed in transfected cells; host or cells: CHO-K1 cells; conditions: for Emax: percentage relative to the effect of serotonin
T1 sequence (P28335 33-458): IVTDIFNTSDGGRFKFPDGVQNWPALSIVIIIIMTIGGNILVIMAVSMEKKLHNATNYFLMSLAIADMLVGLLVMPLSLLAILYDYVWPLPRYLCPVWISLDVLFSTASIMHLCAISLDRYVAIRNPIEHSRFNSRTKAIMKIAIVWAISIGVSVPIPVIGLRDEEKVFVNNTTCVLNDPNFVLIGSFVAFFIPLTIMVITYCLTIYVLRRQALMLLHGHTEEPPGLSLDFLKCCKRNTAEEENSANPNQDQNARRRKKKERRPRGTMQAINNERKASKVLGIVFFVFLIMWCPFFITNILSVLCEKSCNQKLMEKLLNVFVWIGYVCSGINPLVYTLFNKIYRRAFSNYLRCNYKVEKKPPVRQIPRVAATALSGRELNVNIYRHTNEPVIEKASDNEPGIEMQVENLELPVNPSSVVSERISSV
Summary of the method: (§1)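 Frozen CHO-K1 cells over-expressing receptor, serum-starved overnight, loaded with Ca4 dye plus 2.5 mM probenecid for 60 min at room temperature. FLIPR fluorescence (ex 480/em 530 nm, 25° C) recorded 3 min after compound addition; 6-point 1:10 series from 10 μM, 0.2% DMSO. Response normalized to serotonin, 4-parameter fit gives EC50; Emax as % of serotonin.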

[2] = molecular target: T2, human serotonin 5-HT2c receptor (Homo sapiens, UniProt P28335); test: Human 5-HT2C receptor radioligand binding assay (agonist site, [125I](±)DOI); conditions: membranes of transfected CHO cells, 0.2 nM [125I](±)DOI, 15 minutes at 37° C.
T2 construct: expressed in transfected cells; host or cells: CHO cells (membrane homogenate)
T2 sequence (P28335 33-458): T1 sequence (P28335 33-458)
Method: To determine the effectiveness of compounds having a formula (I), these compounds can be evaluated in a radioligand binding assay for the agonist site of the human serotonin 5-HT2c receptor or in vitro models of cellular function.
(i) Human 5-HT2C Receptor Radioligand Binding Assay
Affinity of compounds for the agonist site of the 5-HT2c receptor in transfected CHO cells was determined in a radioligand binding assay essentially as described by Bryant, H. U., et al., Life Sciences (1996) 59(15), 1259-1268.

[3] = test system: AMP-induced hyperactivity; test: d-Amphetamine-induced hyperlocomotion in mice; format: in vivo; conditions: test compound ip 30 minutes before d-amphetamine 2.0 mg/kg sc, FIG. 1
Text: (v) Assessment of Effects on Psychostimulant-Induced Hyperlocomotion in Mice
In both humans and experimental animals amphetamine profoundly affects motor activity, sensorimotor function, sleep, attention, aggressive and sexual behaviors, learning and memory, operant behaviors, appetite and food intake. In addition, amphetamine induces psychotic reactions in normal individuals and exacerbates symptoms of schizophrenia in patients. In experimental animals several distinct behaviors are considered to be correlates of amphetamine psychosis. For example, amphetamine-induced hyperactivity in rodents is believed to model the psychotic symptoms of schizophrenia. Reversal of these behaviors is used to predict potential antipsychotic activity of drugs in pre-clinical studies.
Male NMRI mice (5-week old, Janvier, France) or C57BL/6J mice (6-week old, Janvier, France) were group housed and allowed ad-libitum access to food and water. A 12 hour light/dark cycle was imposed with lights-on period between 0530 and 1730 hours. All testing occurred between 700 and 1300 hours. All procedures were approved by Abbott Institutional Animal Care and Use Committee (USA) or Animal Welfare Officer (Germany) and were conducted in accordance with the National Institutes of Health Guide for Care and Use of Laboratory Animals guidelines and applicable national laws in the facilities accredited by the Association for the Assessment and Accreditation of Laboratory Animal Care.
On the day of experiment, animals were brought from the animal facility into the experimental room and were allowed to acclimatize for at least 30 minutes. Animals were then placed in the test cages for a habituation period of 60 minutes. The animals were then injected ip with the test compound and returned to the test cage. 30 Minutes later, the mice were injected with d-amphetamine (2.0 mg/kg, AMP, Sigma, #A5880, sc) or phencyclidine (2.0 mg/kg, PCP, Sigma, #P3029, sc), and returned to the test cages for 90 minutes. […] The analyzed data were: fine movements, ambulations and total movements (fine+ambulations). […]

[4] = molecular target: T1, 5HT2C receptors; test: Human 5-HT2C functional assay in 1321N1 cells (intracellular calcium, FLIPR); format: cell-based; set-up: expressed in transfected cells; host or cells: 1321N1 cells; conditions: for EC50: 1321N1 cells stably transfected, maximum calcium response, read-out: EC50 (μM), 5-HT2c Agonist Activity
Method: (ii) Human 5-HT2C Functional Assay in 1321N1 Cells
Functional activity was determined by testing the effect of the compounds on intracellular calcium levels in 1321N1 cells stably transfected with the human 5-HT2C receptor. Cells were seeded into 96-well plates at 50,000 cells/well and grown overnight in tissue culture medium (DMEM with Glutamax I (Invitrogen), containing 10% dFCS, 50 μg/mL Gentamicin, 400 μg/mL Geneticin) at 37° C. and 7% CO2. Growth medium was replaced by medium without dFCS for overnight incubation. Cells were loaded with a fluorescent calcium-sensitive dye in the presence of 1% probenicid according to the manufacturer's protocol (Fluo4 AM, Molecular Devices). Serial compound dilutions (final concentrations 10^−10 to 10^−5 M) were added to the cells either alone or in the presence of serotonin (10^−9 M) and the maximum calcium response was determined using a FLIPR instrument (Molecular Devices). Concentration-response curves were fitted using a four-parameter logistic equation (GraphPad Prism). The concentration at which the compound exerts half its maximal effect is named the ‘effective concentration 50’ or ‘EC50’ and is listed in Table 2.
Emax is the maximum functional response or efficacy expressed as a percentage relative to the effect of serotonin.

[5] = molecular target: T3, 5HT2B receptors (Homo sapiens, UniProt P41595); test: Human 5-HT2B functional assay in CHO-K1 cells (calcium flux, FLIPR); format: cell-based; conditions: for Emax: CHO-K1 cells, percentage relative to the effect of serotonin, read-out: Emax (%), 5-HT2B Agonist Activity
T3 construct: expressed in transfected cells; host or cells: CHO-K1 cells
Summary of the method: as §1

[6] = molecular target: T4, h-5-HT6 receptor (Homo sapiens, UniProt P50406); test: Human 5-HT6 receptor radioligand binding assay ([3H]-LSD, HEK293 membranes)
T4 construct: expressed in transfected cells; host or cells: HEK293 cells (membrane preparation)
Method: (iv) Human 5-HT6 Receptor Radioligand Binding Assay
Preparation of Membranes by Ultrasonic Treatment and Differential Centrifugation
Cells from stable clonal cell lines expressing the corresponding receptor (5-HT6) were washed with PBS (without Ca^++, Mg^++) and harvested in PBS with 0.02% EDTA. The cells were collected by centrifugation at 500 g for 10 minutes at 4° C., washed with PBS and centrifuged (500 g, 10 minutes at 4° C.). The pellets were stored at −80° C. until use. For membrane preparation, the thawed cell pellet was resuspended in ice-cold sucrose buffer (0.25 M sucrose, 10 mM HEPES (pH 7.4), 1 mM phenylmethylsulfonyl fluoride (PMSF) in DMSO, 5 μg/ml Pepstatin-A, 3 mM EDTA, 0.025% Bacitracin) and homogenized with a Branson Sonifier W-250 (Settings: Timer 4; Output Control 3; Duty Cycle constant; 2 to 3 cycles). Cell disruption was checked with the aid of a microscope. Remaining unbroken cells were pelleted at 1,000 g for 10 minutes at 4° C. The sucrose buffer supernatant was then centrifuged at 60,000 g for 1 hour at 4° C. (Beckman Ultrazentrifuge XL 80). The pellet was resuspended in 30 mL of ice-cold Tris buffer (20 mM TRIS (pH 7.4), 5 μg/mL Pepstatin A, 0.1 mM PMSF, 3 mM EDTA) by pipetting through a 10 mL serological pipet and centrifuged for 1 hour at 4° C. at 60,000 g. A final resuspension was performed in a small volume of ice-cold Tris buffer (see above) by pressing through a serological pipet followed by ultrasonic treatment with a Branson Sonifier W-250 (Settings: Timer 1; Output Control 3; Duty Cycle constant; 1 cycle). Protein concentration was determined (BCA-Kit; Pierce) and aliquots stored at −80° C. or in liquid nitrogen for long-term storage.
Receptor Binding Experiments
All receptor binding experiments were carried out in the corresponding assay buffer in a total volume of 200 μL in the presence of various concentrations of test compound (10^−5 M to 10^−9 M, tenfold serial dilution, duplicate determinations). The assays were terminated by filtration on polyethylenimine (PEI 0.1% or 0.3%) presoaked Packard Unifilter Plates (GF/C or GF/B) with a Tomtec MachIII U 96 well-plate harvester. After the plates had been dried for 2 hours at 55° C. in a drying chamber scintillation cocktail (BetaPlate Scint; PerkinElmer) was added. Radioactivity was measured in a Microbeta Trilux two hours after the addition of the scintillation mixture.
5-HT6 Receptor Binding Assay
HEK293 cells stably expressing the h-5-HT6 receptor (NCBI Reference Sequence XM 001435) were cultured in RPMI1640 medium supplemented with 25 mM HEPES, 10% fetal calf serum and 1-2 mM glutamine. The membrane preparation was performed as described above. […] On the day of the assay, the membranes were thawed, diluted in assay buffer (50 mM Tris-HCl, 5 mM CaCl2, 0.1% ascorbic acid, 10 μM pargyline, pH 7.4) to a concentration of 8 μg protein/assay and homogenized by gentle vortexing. […] Non-specific binding was defined with 1 μM methiothepin. The binding reaction was carried out for 3.5 hours at room temperature. During the incubation, the plates were shaken on a plate shaker at 100 rpm and terminated by filtration on Packard Unifilter GF/C (0.1% PEI) plates, followed by 2 wash cycles with ice-cold 50 mM Tris-HCl, 5 mM CaCl2.
Data derived from liquid scintillation counting were analyzed by iterative non-linear regression analysis with the use of the Statistical Analysis System (SAS): a program similar to “LIGAND” as described by Munson and Rodbard (Anal. Biochem. 1980, 107, 220-239). Fitting was performed according to formulae described by Feldman (Anal. Biochem. 1972, 48, 317-338). IC50, nH and Ki values were expressed as geometrical mean.
The results of the receptor binding studies are expressed as receptor binding constants Ki(5-HT6) as described herein before, and given in Table 5.

[7] = CHO-K1 cells over-expressing 5HT2C, calcium flux, read-out: EC50 (μM), 5-HT2c Agonist Activity
[8] = CHO-K1 cells over-expressing 5HT2B, calcium flux, read-out: EC50 (μM), 5-HT2B Agonist Activity
[9] = HEK293 membranes, 1 nM [3H]-lysergic acid diethylamide, 3.5 hours at room temperature, read-out: Ki (μM), 5-HT6 Agonist Site Radioligand Binding
[10] = CHO-K1, read-out: Emax (%), 5-HT2c Agonist Activity, CHO-K1 cells

T3 sequence (P41595 whole entry): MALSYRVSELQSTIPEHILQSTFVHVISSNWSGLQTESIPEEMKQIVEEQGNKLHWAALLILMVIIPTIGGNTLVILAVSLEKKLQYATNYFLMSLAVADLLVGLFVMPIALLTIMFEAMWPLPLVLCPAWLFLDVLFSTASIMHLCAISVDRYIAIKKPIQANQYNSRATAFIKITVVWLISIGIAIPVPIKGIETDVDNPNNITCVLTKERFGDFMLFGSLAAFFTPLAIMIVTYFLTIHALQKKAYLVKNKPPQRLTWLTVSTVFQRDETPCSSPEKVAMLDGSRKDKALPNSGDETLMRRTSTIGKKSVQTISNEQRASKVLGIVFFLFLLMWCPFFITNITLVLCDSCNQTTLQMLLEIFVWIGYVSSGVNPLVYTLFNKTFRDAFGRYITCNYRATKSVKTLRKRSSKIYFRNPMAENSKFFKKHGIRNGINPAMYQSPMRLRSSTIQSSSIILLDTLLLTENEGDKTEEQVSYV
T4 sequence (P50406 whole entry): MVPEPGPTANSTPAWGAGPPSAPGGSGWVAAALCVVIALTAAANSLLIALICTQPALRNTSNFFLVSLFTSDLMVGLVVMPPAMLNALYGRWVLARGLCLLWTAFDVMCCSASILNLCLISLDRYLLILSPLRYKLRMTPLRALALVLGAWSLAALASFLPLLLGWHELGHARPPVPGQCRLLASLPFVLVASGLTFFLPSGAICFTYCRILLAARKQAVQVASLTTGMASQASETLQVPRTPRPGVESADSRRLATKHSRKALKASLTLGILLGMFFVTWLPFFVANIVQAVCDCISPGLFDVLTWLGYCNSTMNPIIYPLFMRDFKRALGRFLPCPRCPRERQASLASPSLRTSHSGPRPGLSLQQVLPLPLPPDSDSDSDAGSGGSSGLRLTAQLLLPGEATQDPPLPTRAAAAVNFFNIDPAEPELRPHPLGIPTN

Question: Which EC50 [1, 7] does the source give for O=C1C[C@H]2CNCCN2c2cc(CCc3ccccc3)ccc2N1 [Example 42, (4aS)-10-(2-phenylethyl)-1,2,3,4,4a,5-hexahydropyrazino[1,2-a][1,5]benzodiazepin-6(7H)-one] here?
Answer: 0.0004 µM

Question: And the Emax ([1]; CHO-K1 cells, read-out: Emax (%), 5-HT2c Agonist Activity)?
Answer: > 120%

Question: What about the Ki [2] of the same molecule?
Answer: 0.00071 µM

Question: And the AMP-induced hyperactivity [3]?
Answer: attenuated AMP-induced hyperactivity significantly and in a dose dependent manner; also recorded: concentration-dependent effects of Example 42 attenuating the affect of d-amphetamine

Question: And the EC50 [4]?
Answer: 0.0011 µM

Question: What about the Emax ([4]; 1321N1 cells, percentage relative to the effect of serotonin, read-out: Emax (%), 5-HT2c Agonist Activity) of the same molecule?
Answer: 95%

Question: What about the EC50 [5, 8] of the same molecule?
Answer: 5 µM

Question: And the Emax [5]?
Answer: 55%

Question: O=C1NCC2CN(Cc3ccccc3)CCN2c2ccc(NS(=O)(=O)c3ccccc3)cc21 (stereo not shown) [Example 47, N-(3-benzyl-7-oxo-1,2,3,4,4a,5,6,7-octahydropyrazino[1,2-a][1,4]benzodiazepin-9-yl)benzenesulfonamide] was tested. Which Ki [2] did it give?
Answer: 33 µM

Question: What about the Ki [6, 9] of the same molecule?
Answer: 0.821 µM

Question: And the EC50 [4]?
Answer: > 10 µM

Question: What does the source list for O=C1CC2CNCCN2c2ccc(NS(=O)(=O)c3ccccc3)cc2N1 (stereo not shown) [Example 76, N-(6-oxo-1,2,3,4,4a,5,6,7-octahydropyrazino[1,2-a][1,5]benzodiazepin-9-yl)benzenesulfonamide]?
Answer: EC50 [1, 7]: > 100 µM; Ki [6, 9]: 0.025 µM

Question: How did the EC50 [1, 7] turn out when O=C1CC2CNCCN2c2ccc(S(=O)(=O)c3ccccc3)cc2N1 (stereo not shown) [Example 112, 9-(phenylsulfonyl)-1,2,3,4,4a,5-hexahydropyrazino[1,2-a][1,5]benzodiazepin-6(7H)-one] was run?
Answer: > 10 µM

Question: And the Ki [6, 9]?
Answer: 0.017 µM

Question: What about the EC50 [5, 8] of the same molecule?
Answer: 0.9 µM

Question: What about the Emax [5] of the same molecule?
Answer: 90%

Question: What does the source list for O=C1NCC2CNCCN2c2ccc(NS(=O)(=O)c3cccc(C(F)(F)F)c3)cc21 (stereo not shown) [Example 184, N-(7-oxo-1,2,3,4,4a,5,6,7-octahydropyrazino[1,2-a][1,4]benzodiazepin-9-yl)-3-(trifluoromethyl)benzenesulfonamide]?
Answer: EC50 [1, 7]: > 10 µM; Ki [6, 9]: 0.008 µM; EC50 [5, 8]: > 10 µM

Question: With Cc1cccc2c1OCC[C@H]1CNCCN21 [Example 226, (4aS)-8-methyl-2,3,4,4a,5,6-hexahydro-1H-pyrazino[2,1-d][1,5]benzoxazepine] as the molecule, how does the EC50 [1] read?
Answer: 0.0008 µM

Question: And the Emax [1, 10]?
Answer: 90%

Question: And the Ki [6]?
Answer: 2.06 µM

Question: And the EC50 [5]?
Answer: > 10 µM

Question: With CN1CCN2c3cccc(F)c3OCC[C@H]2C1 [Example 231, (4aS)-8-fluoro-3-methyl-2,3,4,4a,5,6-hexahydro-1H-pyrazino[2,1-d][1,5]benzoxazepine] as the molecule, how does the EC50 [1] read?
Answer: 0.004 µM

Question: And the Emax [1, 10]?
Answer: 85%

Question: And the Ki [6]?
Answer: 0.855 µM

Question: And the EC50 [5]?
Answer: > 10 µM
